The values that follow come from patent US4122184A, “Benzimidazole insecticides” (priority 1977, dated 1978).

The test system of experiment [1] is Squash Bug Adults. Put plainly: Field trial, contact poison test. In kind it is in vivo. Set-up: key: 0-9 rating: 0 = 0-10% mortality, 9 = 91-100% mortality. The gist of the method: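 Infested host plants were kept in water-filled bottles with cellucotton around the stem and sprayed with different compound concentrations by atomizer at 10 psi from arm's length. Mortality was read at 24, 48 and 72 h on a 0–9 scale (0 = 0-10%, 9 = 91-100% mortality), averaged per concentration.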

Experiment [2] deals with Boll Weevil. Put plainly: Field trial (first summer), topical. The conditions noted are these: .078125 μg/μl. In kind it is in vivo, Anthonomus grandis. A digest of the protocol: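 Field trial from the first summer in which 1 µl of test solution holding a set number of micrograms of benzimidazole was applied topically to larvae or adult insects. Mortality at a given route and concentration was scored on a 0–9 scale.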

The test system of experiment [3] is Bean Leaf Beetle. In words: Field trial, stomach poison test. Type of experiment: in vivo. The gist of the method:
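Spray (10 psi) or dip leaves from infested plants in test solution; air-dry; put in Petri dish; add 5 or 10 insects; score mortality 0–9 at 24/48/72 h. 1–2 reps, usually 2–3 rates.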

Experiment [4] relates to Yellow Mealworm Larvae. Put plainly: Field trial, topical application. In kind it is in vivo. More on the design: key: 0 = 0-10% mortality, 9 = 91-100% mortality (0-9 scale). A digest of the protocol: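 1 μL benzimidazole solution of set microgram content applied topically to larvae or adults. Mortality read at 24, 48 and 72 h where applicable, rated 0-9 (0 = 0-10%, 9 = 91-100%); values are average mortality per concentration.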

Experiment [5] has as its system Melon Aphid. In words: Melon Aphid Test. In kind it is in vivo, Aphis gossypii (Hemiptera). The conditions noted are these: 24 h. From the text:
Four blue hubbard squash seeds are planted per container in vermiculite and the containers watered from the bottom. After 6 days, the two weakest plants are cut off and one cotyledon and the primary leaves are removed from each of the two remaining plants. The remaining cotyledon is infested with 100 melon aphids from a stock colony by pinning the cotyledon against an aphid-infested squash cotyledon from the colony and allowing the aphids to transfer. After transfer, the colony leaf is removed. Forty-eight hours later, the infested leaves are sprayed to wetting with formulations containing graded amounts of the insecticide using a DeVilbiss atomizer at 10 psi held at 12-15 inches from the plant. Controls consist of two infested, unsprayed squash plants and two infested plants sprayed to wetting with a formulation containing 100 ppm malathion as a reference standard. The mortality is estimated 24 hours after spraying by observation using a 10 power dissecting microscope. The same rating scale is used as before.

The test system of experiment [6] is Oriental Cockroach. In words: Oriental Roach Test. In kind it is in vivo, Blatta orientalis (Orthoptera). The conditions noted are these: 24 h. The gist of the method:
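Ten late-instar (3-4 month) nymphs per cage, held at 70°-80° F., sprayed with 5 ml of insecticide formulation at a specified amount. Cockroaches kept unfed and unwatered; mortality counted 24 hours post-spray, with insects staying on the cage bottom after light shaking scored dead.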

Experiment [7] concerns Mexican Bean Beetle. Put plainly: Mexican Bean Beetle Test. In kind it is in vivo, Epilachna varivestis (Coleoptera). The conditions noted are these: 48 h. The method, then:
Cuttings of four six-day old Bountiful snap bean plants containing two leaves with approximately 5 square inches of leaf surface, are placed in water. The leaves are sprayed to wetting with about 5-10 ml. of a formulation containing a pre-determined level of the test compound. Half of the formulation is sprayed on the top surface and half on the bottom surface of the leaf using a DeVilbiss atomizer at 10 psi held at a distance of about 18 inches from the leaf. After the leaves have dried, they are cut from the stem and placed separately in petri dishes. Ten third instar, nonmolting Mexican bean beetle larvae grown on Bountiful snap beans are placed on each leaf. Controls consist of two leaves sprayed with 5 ml. of a 500 ppm malathion formulation (reference standard), two leaves sprayed with the formulation without the active ingredient and two leaves are held as untreated controls. After 48 hours, a mortality count is made and the amount of feeding noted. Moribund larvae are counted as dead.

Experiment [8] has as its system Southern Armyworm. In words: Southern Armyworm Test. In kind it is in vivo, Prodenia eridania (Lepidoptera). The conditions noted are these: 48 h. The method, then: Ten uniform Southern armyworm larvae about 1-1.5 cm. in length, grown on Henderson lima beans, are placed on excized bean leaves in petri dishes. The bean leaves are obtained and sprayed with the insecticide in the same way as are the snap bean leaves in the Mexican bean beetle test. The reference standards in this instance are leaves sprayed with 5 ml. 100 ppm DDT solution. Mortality counts are made 48 hours after spraying and again moribund larvae are counted as dead. Missing larvae which have probably been eaten are considered alive. The same rating scale is used as in the Mexican bean beetle test.

Experiment [9] has as its system Two-spotted Spider Mite. Put plainly: Two-spotted Spider Mite test. Type of experiment: in vivo, Tetranychus urticae (Acarina). The conditions noted are these: 48 h. The method, then:
The procedure in this test is the same as that in the previous aphid test, except that about 100 two-spotted spider mites from a stock colony raised on squash plants are transferred to a cut squash cotyledon. The mortality is estimated 48 hours after spraying. The same rating scale is used.

Turning to `O=[N+]([O-])c1cc(C(F)(F)F)cc2nc(C(F)(F)F)[nH]c12` [A, 2,6-bis(trifluoromethyl)-4-nitrobenzimidazole], the average mortality rating in experiment [1] (125 ppm) is 0 (0-10 percent); in experiment [1] (250 ppm), 6; in [1] (500 ppm), 9 (91-100 percent mortality); in [1] (750 ppm) it was 9 (91-100 percent mortality); in experiment [3] (10 ppm), 0 (0-10 percent); in [3] (25 ppm), 0 (0-10 percent). Further, the average mortality rating was found to be 1 in experiment [3] (50 ppm), 3 in experiment [4] (0.03 μg/μl), 5 in [4] (0.07 μg/μl) and 5 in experiment [4] (0.15 μg/μl). The insect mortality rating in [2] is recorded as 9 (91-100 percent mortality).
Turning to `CC(C)OC(=O)n1c(C(F)(F)F)nc2c([N+](=O)[O-])cc(C(F)(F)F)cc21` [I, isopropyl 2,6-bis(trifluoromethyl)-4-nitro-1-benzimidazolecarboxylate], the mortality rating was determined as 8.5 in experiment [5] (50 ppm); 6.5 in experiment [5] (250 ppm); 1.5 in experiment [6] (100 ppm); 5.5 in experiment [6] (250 ppm); 6.5 in experiment [6] (500 ppm); 6.5 in experiment [7] (25 ppm). For the same compound, the average mortality rating in [1] (125 ppm) is given as 3; in experiment [1] (250 ppm), 1; in experiment [1] (500 ppm), 0 (0-10 percent); in [1] (750 ppm), 0 (0-10 percent); in [3] (10 ppm), 0 (0-10 percent); in [3] (25 ppm), 1. The compound also came in with an average mortality rating in experiment [3] (50 ppm) of 3.
In the case of `O=[N+]([O-])c1cc(C(F)(F)F)cc2[nH]c(C(F)(F)Cl)nc12` [L, 2-chlorodifluoromethyl-4-nitro-6-trifluoromethylbenzimidazole], the mortality rating in experiment [5] (25 ppm) was found to be 5.5; in experiment [8] (500 ppm) it was 1.5; in experiment [6] (500 ppm), 5.5; in [9] (5 ppm) it was 7.5; in experiment [7] (50 ppm) it was 8.5. Further, the average mortality rating is recorded as 0 (0-10 percent) in experiment [1] (125 ppm); 6 in [1] (250 ppm); 6 in [1] (500 ppm); 9 (91-100 percent mortality) in experiment [1] (750 ppm); 1 in experiment [3] (10 ppm); 1 in [3] (25 ppm). Besides, the average mortality rating is 0 (0-10 percent) in experiment [3] (50 ppm), 5 in experiment [4] (0.03 μg/μl), 5 in experiment [4] (0.07 μg/μl) and 9 (91-100 percent mortality) in experiment [4] (0.15 μg/μl).
Take “mixture of N,N-dimethyl-4-nitro-2,6-bis(trifluoromethyl)thio-1-benzimidazolecarboxamide and N,N-dimethyl-7-nitro-2,5-bis(trifluoromethyl)thio-1-benzimidazolecarboxamide [P]”: the mortality rating in experiment [5] (10 ppm) is given as 0 (0-10); in [5] (25 ppm), 1.5; in [5] (100 ppm) it was 4 (41-50); in [5] (250 ppm) it was 7 (71-80); in experiment [5] (500 ppm), 7.5; in experiment [5] (1000 ppm), 4.5. Moreover, the mortality rating in [8] (250 ppm) is recorded as 0 (0-10); in experiment [8] (500 ppm) it was 0 (0-10); in [8] (1000 ppm) it was 3.5; in experiment [6] (50 ppm), 0 (0-10); in experiment [6] (100 ppm) it was 2.5; in [6] (250 ppm), 5.5. Moreover, the mortality rating is 9 (91-100) in experiment [6] (500 ppm); 8 (81-90) in experiment [6] (1000 ppm); 3 (31-40) in experiment [9] (1 ppm); 4 (41-50) in [9] (5 ppm); 4 (41-50) in [9] (10 ppm); 6 (61-70) in [9] (25 ppm). For the same compound, the mortality rating in experiment [9] (50 ppm) was 7.0; in experiment [9] (100 ppm), 7.5; in [9] (250 ppm), 8.5; in [9] (500 ppm) it was 9 (91-100); in experiment [9] (1000 ppm), 9 (91-100); in experiment [7] (10 ppm) it was 0 (0-10). The mortality rating in experiment [7] (25 ppm) is on record as 0 (0-10); in experiment [7] (50 ppm) it was 4.5; in experiment [7] (100 ppm), 7 (71-80); in [7] (250 ppm), 7.5; in [7] (500 ppm), 8.5; in experiment [7] (1000 ppm) it was 9 (91-100). In addition, the insect mortality rating in experiment [2] was 9 (91-100 percent mortality).
As for “mixture of benzyl 2,6-bis(trifluoromethyl)-4-nitro-1-benzimidazolecarboxylate and benzyl 2,5-bis(trifluoromethyl)-7-nitro-1-benzimidazolecarboxylate”, the mortality rating is reported as 0 (0-10) in [5] (100 ppm); 5 (51-60) in experiment [5] (250 ppm); 9 (91-100) in [5] (500 ppm); 8 (81-90) in [5] (1000 ppm); 2 (21-30) in [8] (100 ppm); 6 (61-70) in [8] (500 ppm). Moreover, the mortality rating in experiment [8] (1000 ppm) is given as 7 (71-80); in experiment [6] (50 ppm), 1.5; in [6] (100 ppm), 3 (31-40); in experiment [6] (250 ppm), “.5”; in [6] (500 ppm), 1.5; in experiment [6] (1000 ppm) it was 9 (91-100). Besides, the mortality rating in experiment [9] (10 ppm) is listed as 8 (81-90); in experiment [9] (25 ppm), 7 (71-80); in experiment [9] (50 ppm) it was 9 (91-100); in [9] (100 ppm), 9 (91-100); in experiment [9] (250 ppm) it was 9 (91-100); in experiment [9] (500 ppm), 9 (91-100). The mortality rating in experiment [9] (1000 ppm), in [7] (50 ppm), in experiment [7] (100 ppm), in experiment [7] (250 ppm), in experiment [7] (500 ppm) and in [7] (1000 ppm) was 9 (91-100) in each case. The insect mortality rating in experiment [2] was 9 (91-100 percent mortality). Further, the average mortality rating was 0 (0-10 percent) in [3] (10 ppm); 1 in experiment [3] (25 ppm); 2 in experiment [3] (50 ppm); 1 in experiment [4] (0.03 μg/μl); 4 in experiment [4] (0.07 μg/μl); 5 in experiment [4] (0.15 μg/μl).
